Measurements as given in patent US20230085307A1, “PYRIDAZINONE COMPOUND AND HERBICIDE” (NISSAN CHEMICAL CORPORATION, priority 2019, published 2023).

What follows are compounds tested on lambsquarters (assay: Test Example 4: herbicidal effect by soil treatment (Table 19, symbol O)). Conditions: amount of applied herbicide 320 g/ha.
Assay type: in vivo, lambsquarters (Chenopodium album)
Outline: (§1)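 Herbicidal effect was rated 3 weeks after treatment, using the scoring criteria of an earlier test. The compound, formulated as an emulsion and diluted in water to a set herbicide amount, had been sprayed uniformly on soil over freshly sown seeds. Growth took place in a greenhouse at 25° C. to 30° C.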
`COc1ccccc1-c1sc2cc(F)ccc2c1-c1c(OS(=O)(=O)c2ccc(C)cc2)c(C)nn(C)c1=O` [3-027] was tested, and the “O: lambsquarters, herbicidal effect grade” value was 0 (Herbicidal rate of 5% or less (almost no effect)).

The compounds below were run on rice flat sedge (assay: Test Example 3: herbicidal effect by foliage application, Wagner pot (Table 18, symbol E)). Conditions: amount of applied herbicide 320 g/ha.
Assay type: in vivo, rice flat sedge (Cyperus iria)
Outline: (§2)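 Plants were sown in alluvial soil held under 0.1–0.5 cm standing water and grown 14 days in a greenhouse at 25–30 °C. An emulsifiable formulation, water-diluted to the set dose, was then sprayed onto the foliage, and effects were scored three weeks later using previously defined criteria.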
For `COc1ccccc1-c1sc2cc(F)ccc2c1-c1c(OS(=O)(=O)c2ccc(C)cc2)c(C)nn(C)c1=O` [3-027], the “herbicidal effect on E: rice flat sedge” value was 5 (Herbicidal rate of 90% or more (almost completely withered)).

These compounds were tested on Italian ryegrass (assay: Test Example 5: herbicidal effect by foliage application, plastic box (Table 20, symbol K)). Conditions: foliage application, 320 g/ha, three weeks after application.
Assay type: in vivo, Italian ryegrass (Lolium multiflorum)
Outline: (§3)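 Foliar spray test: emulsion formulation diluted in water to a set application rate, sprayed onto 14-day-old plants raised in diluvial soil at 25° C to 30° C under glass. Both herbicidal effect and crop effect rated visually three weeks later.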
With `COc1ccccc1-c1sc2cc(F)ccc2c1-c1c(OS(=O)(=O)c2ccc(C)cc2)c(C)nn(C)c1=O` [3-027] the “K: Italian ryegrass, herbicidal effect grade” value was 3 (Herbicidal rate of 40% or more and less than 70%).

The compounds below were run on Japanese bulrush (assay: Test Example 2: herbicidal activity, application during weed generation under submerged conditions (Table 17, symbol B)). Conditions: AAH 320 g/ha; application during weed generation, submerged conditions.
Assay type: in vivo, Japanese bulrush (Schoenoplectus juncoides)
Outline: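 In this pot test, flooded alluvial soil (water depth 4 cm) holds all three species sown as a mixture. Once seedlings have one to two leaves, the compound's emulsion, thinned with water to the intended dose, is poured on the water; grading follows after three weeks on the earlier criteria.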
For `COc1ccccc1-c1sc2cc(F)ccc2c1-c1c(OS(=O)(=O)c2ccc(C)cc2)c(C)nn(C)c1=O` [3-027], the “herbicidal effect rating, B: Japanese bulrush” value was 2 (Herbicidal rate of 20% or more and less than 40%).

The compounds below were run on blackgrass (assay: Test Example 5: herbicidal effect by foliage application, plastic box (Table 20, symbol J)). Conditions: foliage application, 320 g/ha, three weeks after application.
Assay type: in vivo, blackgrass (Alopecurus myosuroides)
Outline: as §3
`COc1ccccc1-c1sc2cc(F)ccc2c1-c1c(OS(=O)(=O)c2ccc(C)cc2)c(C)nn(C)c1=O` [3-027] was tested, and the “J: blackgrass, herbicidal effect grade” value was 4 (Herbicidal rate of 70% or more and less than 90%).

The compounds below were run on velvetleaf (assay: Test Example 5: herbicidal effect by foliage application, plastic box (Table 20, symbol M)). Conditions: foliage application, 320 g/ha, three weeks after application.
Assay type: in vivo, velvetleaf (Abutilon theophrasti)
Outline: as §3
In the case of `COc1ccccc1-c1sc2cc(F)ccc2c1-c1c(OS(=O)(=O)c2ccc(C)cc2)c(C)nn(C)c1=O` [3-027], the “M: velvetleaf, herbicidal effect grade” value is reported as 5 (Herbicidal rate of 90% or more (almost completely withered)).

What follows are compounds tested on lambsquarters (assay: Test Example 5: herbicidal effect by foliage application, plastic box (Table 20, symbol O)). Conditions: foliage application, 320 g/ha, three weeks after application.
Assay type: in vivo, lambsquarters (Chenopodium album)
Outline: as §3
With `COc1ccccc1-c1sc2cc(F)ccc2c1-c1c(OS(=O)(=O)c2ccc(C)cc2)c(C)nn(C)c1=O` [3-027] the “O: lambsquarters, herbicidal effect grade” value was 3 (Herbicidal rate of 40% or more and less than 70%).

Each compound was assayed on green foxtail (assay: Test Example 4: herbicidal effect by soil treatment (Table 19, symbol G)). Conditions: amount of applied herbicide 320 g/ha.
Assay type: in vivo, green foxtail (Setaria viridis)
Outline: as §1
For `COc1ccccc1-c1sc2cc(F)ccc2c1-c1c(OS(=O)(=O)c2ccc(C)cc2)c(C)nn(C)c1=O` [3-027], the “G: green foxtail, herbicidal effect grade” value was 0 (Herbicidal rate of 5% or less (almost no effect)).

What follows are compounds tested on Chinese sprangletop (assay: Test Example 3: herbicidal effect by foliage application, Wagner pot (Table 18, symbol D)). Conditions: amount of applied herbicide 320 g/ha.
Assay type: in vivo, chinese sprangletop (Leptochloa chinensis)
Outline: as §2
`COc1ccccc1-c1sc2cc(F)ccc2c1-c1c(OS(=O)(=O)c2ccc(C)cc2)c(C)nn(C)c1=O` [3-027] was tested, and the “herbicidal effect on D: Chinese sprangletop” value was 3 (Herbicidal rate of 40% or more and less than 70%).

These compounds were tested on blackgrass (assay: Test Example 4: herbicidal effect by soil treatment (Table 19, symbol J)). Conditions: amount of applied herbicide 320 g/ha.
Assay type: in vivo, blackgrass (Alopecurus myosuroides)
Outline: as §1
For `COc1ccccc1-c1sc2cc(F)ccc2c1-c1c(OS(=O)(=O)c2ccc(C)cc2)c(C)nn(C)c1=O` [3-027], the “J: blackgrass, herbicidal effect grade” value was 3 (Herbicidal rate of 40% or more and less than 70%).

Each compound was assayed on Italian ryegrass (assay: Test Example 4: herbicidal effect by soil treatment (Table 19, symbol K)). Conditions: amount of applied herbicide 320 g/ha.
Assay type: in vivo, Italian ryegrass (Lolium multiflorum)
Outline: as §1
With `COc1ccccc1-c1sc2cc(F)ccc2c1-c1c(OS(=O)(=O)c2ccc(C)cc2)c(C)nn(C)c1=O` [3-027] the “K: Italian ryegrass, herbicidal effect grade” value was 0 (Herbicidal rate of 5% or less (almost no effect)).

What follows are compounds tested on wild oat (assay: Test Example 5: herbicidal effect by foliage application, plastic box (Table 20, symbol I)). Conditions: foliage application, 320 g/ha, three weeks after application.
Assay type: in vivo, wild oat (Avena fatua)
Outline: as §3
`COc1ccccc1-c1sc2cc(F)ccc2c1-c1c(OS(=O)(=O)c2ccc(C)cc2)c(C)nn(C)c1=O` [3-027] was tested, and the “I: wild oat, herbicidal effect grade” value was 3 (Herbicidal rate of 40% or more and less than 70%).

Each compound was assayed on barnyard grass (assay: Test Example 5: herbicidal effect by foliage application, plastic box (Table 20, symbol H)). Conditions: foliage application, 320 g/ha, three weeks after application.
Assay type: in vivo, barnyard grass (Echinochloa crus-galli)
Outline: as §3
With `COc1ccccc1-c1sc2cc(F)ccc2c1-c1c(OS(=O)(=O)c2ccc(C)cc2)c(C)nn(C)c1=O` [3-027] the “H: barnyard grass, herbicidal effect grade” value was 5 (Herbicidal rate of 90% or more (almost completely withered)).

Each compound was assayed on barnyard grass (assay: Test Example 4: herbicidal effect by soil treatment (Table 19, symbol H)). Conditions: amount of applied herbicide 320 g/ha.
Assay type: in vivo, barnyard grass (Echinochloa crus-galli)
Outline: as §1
`COc1ccccc1-c1sc2cc(F)ccc2c1-c1c(OS(=O)(=O)c2ccc(C)cc2)c(C)nn(C)c1=O` [3-027] was tested, and the “H: barnyard grass, herbicidal effect grade” value was 0 (Herbicidal rate of 5% or less (almost no effect)).

These compounds were tested on windgrass (assay: Test Example 5: herbicidal effect by foliage application, plastic box (Table 20, symbol L)). Conditions: foliage application, 320 g/ha, three weeks after application.
Assay type: in vivo, windgrass (Apera spica-venti)
Outline: as §3
`COc1ccccc1-c1sc2cc(F)ccc2c1-c1c(OS(=O)(=O)c2ccc(C)cc2)c(C)nn(C)c1=O` [3-027] was tested, and the “L: windgrass, herbicidal effect grade” value was 5 (Herbicidal rate of 90% or more (almost completely withered)).

The compounds below were run on persian speedwell (assay: Test Example 5: herbicidal effect by foliage application, plastic box (Table 20, symbol R)). Conditions: foliage application, 320 g/ha, three weeks after application.
Assay type: in vivo, Persian speedwell (Veronica persica)
Outline: as §3
`COc1ccccc1-c1sc2cc(F)ccc2c1-c1c(OS(=O)(=O)c2ccc(C)cc2)c(C)nn(C)c1=O` [3-027] was tested, and the “R: persian speedwell, herbicidal effect grade” value was 0 (Herbicidal rate of 5% or less (almost no effect)).

The compounds below were run on chickweed (assay: Test Example 5: herbicidal effect by foliage application, plastic box (Table 20, symbol P)). Conditions: foliage application, 320 g/ha, three weeks after application.
Assay type: in vivo, common chickweed (Stellaria media)
Outline: as §3
For `COc1ccccc1-c1sc2cc(F)ccc2c1-c1c(OS(=O)(=O)c2ccc(C)cc2)c(C)nn(C)c1=O` [3-027], the “P: chickweed, herbicidal effect grade” value was 3 (Herbicidal rate of 40% or more and less than 70%).
